Experimental data published in patent publication US20250206828A1, “ANTI-ADENOSINE RECEPTOR (A2aR) ANTIBODIES AND THE USE THEREOF” (Adept Therapeutics Inc., priority 2022, published 2025).
Blank lines part the entries; values can stand above or below the molecule they belong to.

Columns and labels:
[1] = test system: human PBMCs (CD4 T, CD8 T, NK cells); test: Restoration of IFN-γ and IL-2 production of NECA-suppressed T cells and NK cells (intracellular cytokine staining); format: cell-based; conditions: NECA; test substance 2 μg/ml
Protocol: (§1) Two hundred thousand (2×10^5) human peripheral blood mononuclear cells (PBMCs) human PBMC in complete IMDM medium were aliquoted into each well in a 96-well plate and the cells in the 96-well plate were pre-incubated with antibodies or small molecule inhibitors at indicated concentration for 90 minutes, followed by addition of T cell activator anti-CD3/28 dynabeads (Gibco, Cat #11132D) at ratio of 1:4 (Beads: PBMC, v/v) and NECA (DiscoverX, Cat #92-1191, final concentration […]). Cells were cultured in an incubator at 37° C., 5% CO2 for 24 hours. Cells were then collected and stimulated with anti-CD3/28 dynabeads in the presence of GolgiPlug™ Protein Transport Inhibitor (BD Biosciences, Cat #555028) according to manufacturer's manual for 4 hours. Thereafter, cells were incubated with human TruStain FcX block (Biolegend, Cat #422302) and True-Stain monocyte blocker (Biolegend, Cat #426103) for 15 minutes according the manufacturer's manual, and cells were then stained with surface markers PE-anti-CD4 (Biolegend, Cat #300550), PerCP-cy5.5-anti-CD8 (Biolegend, Cat #301032), APC/cy7-anti-CD3 (Biolegend, Cat #300426) and PE/cy7-anti-CD56 (Biolegend, Cat #362509), PE/cy7-anti-CD56 (Biolegend, Cat #362509), BV711-anti-CD25 (Biolegend, Cat #302636) and BV605-anti-CD69 (Biolegend, Cat #31938 After wash with FACS buffer, cells were stained with BV421-anti-IFN-γ (BD Bioscience, Cat #562988) and APC anti-IL-2 (BD Bioscience, cat #551383) using intracellular cytokine staining kit (BD Biosciences, cat #555028) following manufacturer's instruction. Stained samples were analyzed on FACSAria III machine. Data were analyzed using Flowjo software.

[2] = test system: human PBMCs (CD4 and CD8 T cells); test: Restoration of CD25 and CD69 activation markers on NECA-suppressed CD4 and CD8 T cells; format: cell-based; conditions: test substance 2 μg/ml
Protocol: as §1

[3] = target: human adenosine A2A receptor (A2aR) (human, UniProt P29274 1-412); test: flow cytometry, HEK293-hA2aR cells, supernatant 1 ug/ml
Sequence of human adenosine A2A receptor (A2aR) (P29274 whole entry): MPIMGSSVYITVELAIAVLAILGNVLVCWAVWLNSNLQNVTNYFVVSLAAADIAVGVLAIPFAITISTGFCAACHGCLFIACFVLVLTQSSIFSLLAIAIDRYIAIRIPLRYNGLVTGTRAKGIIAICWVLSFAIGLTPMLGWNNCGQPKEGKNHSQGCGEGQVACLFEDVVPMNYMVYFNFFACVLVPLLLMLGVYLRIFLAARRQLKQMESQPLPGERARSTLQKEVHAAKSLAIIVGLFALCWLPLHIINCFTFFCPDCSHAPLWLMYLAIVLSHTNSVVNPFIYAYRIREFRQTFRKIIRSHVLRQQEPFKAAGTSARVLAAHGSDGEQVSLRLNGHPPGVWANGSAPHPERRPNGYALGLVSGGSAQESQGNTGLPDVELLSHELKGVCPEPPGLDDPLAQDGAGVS

Molecule: Cc1cc(-c2nnc(N)nc2-c2ccc(F)cc2)cc(Cl)n1 [AZD4635]
- % of cells IFNγ+, CD4 T cells [1]: 3.41%
- % of cells IFNγ+, CD8 T cells [1]: 13.3%
- % of cells IFNγ+, NK cells [1]: 8.91%
- % of cells IL-2+, CD4 T cells [1]: 10.4%
- % of cells IL-2+, CD8 T cells [1]: 2.57%
- % of cells CD25+, CD4 T cells [2]: 48.8%
- % of cells CD25+, CD8 T cells [2]: 26%
- % of cells CD69+, CD4 T cells [2]: 48.1%
- % of cells CD69+, CD8 T cells [2]: 49.1%

- MFI [3]: 110 MFI
B1: Hu3F8-H4/Hu3F8-L1 (antibody, human IgG1, V domains shown)
VH: EVQLVQSGAEVKKPGASVKVSCKASGFTFTRYWMNWVRQAPGQGLEWIGRIDPSDSETHYNHKFWGRATLTVDKSTSTVYMELSSLRSEDTAVYYCLRSLYGKGDYWGQGTTVTVSS
VL: DVVMTQSPLSLPVTLGQPASISCRSSQSIVHSNGNTYLEWFQQRPGQSPRRLIYKVSNRFSGVPDRFSGSGSGTDFTLKISRVEAEDVGVYYCYQGSHVPLTFGGGTKVEIK

- MFI [3]: 147 MFI
B2: Hu3F8-H5/Hu3F8-L2 (antibody, human IgG1, V domains shown)
VH: EVQLVQSGAEVKKPGASVKVSCKASGFTFTRYWMNWVRQAPGQGLEWIGRIDPSDSETHYNAKFWGRATLTVDKSTSTVYMELSSLRSEDTAVYYCLRSLYGKGDYWGQGTTVTVSS
VL: DVVMTQSPLSLPVTLGQPASISCRSSQSIVHSNGNTYLEWYQQRPGQSPRRLIYKVSNRFSGVPDRFSGSGSGTDFTLKISRVEAEDVGVYYCYQGSHVPLTFGGGTKVEIK

- MFI [3]: 58 MFI
B3: Hu3F8-H5/Hu3F8-L1 (antibody, human IgG1, V domains shown)
VH: EVQLVQSGAEVKKPGASVKVSCKASGFTFTRYWMNWVRQAPGQGLEWIGRIDPSDSETHYNAKFWGRATLTVDKSTSTVYMELSSLRSEDTAVYYCLRSLYGKGDYWGQGTTVTVSS
VL: DVVMTQSPLSLPVTLGQPASISCRSSQSIVHSNGNTYLEWFQQRPGQSPRRLIYKVSNRFSGVPDRFSGSGSGTDFTLKISRVEAEDVGVYYCYQGSHVPLTFGGGTKVEIK

- MFI [3]: 145 MFI
B4: Hu1B5-H2.1/Hu1B5-L1 (antibody, human IgG1, V domains shown)
VH: EVQLVQSGAEVKKPGASVKVSCKTSGFTFTRFWMNWVRQAPGQGLEWIGRIDPYDSETQYNHKFWDRVTMTVDTSTSTVYMELSSLRSEDTAVYYCGRSLYGKGDYWGQGTTVTVSS
VL: DVVMTQSPLSLPVTLGQPASISCRSSQSIVHSNGNTYLEWFQQRPGQSPRRLIYKVSNRFSGVPDRFSGSGSGTDFTLKISRVEAEDVGVYYCFQGSHVPLTFGGGTKVEIK

- MFI [3]: 131 MFI
B5: Hu3F8-H4/Hu3F8-L2 (antibody, human IgG1, V domains shown)
VH: EVQLVQSGAEVKKPGASVKVSCKASGFTFTRYWMNWVRQAPGQGLEWIGRIDPSDSETHYNHKFWGRATLTVDKSTSTVYMELSSLRSEDTAVYYCLRSLYGKGDYWGQGTTVTVSS
VL: DVVMTQSPLSLPVTLGQPASISCRSSQSIVHSNGNTYLEWYQQRPGQSPRRLIYKVSNRFSGVPDRFSGSGSGTDFTLKISRVEAEDVGVYYCYQGSHVPLTFGGGTKVEIK

- MFI [3]: 152 MFI
B6: Hu1B5-H3/Hu1B5-L1 (antibody, human IgG1, V domains shown)
VH: EVQLVQSGAEVKKPGASVKVSCKTSGFTFTRFWMNWVRQAPGQGLEWIGRIDPYDSETQYNHKFWDRATLTVDTSSSTVYMELSSLRSEDTAVYYCGRSLYGKGDYWGQGTTVTVSS
VL: DVVMTQSPLSLPVTLGQPASISCRSSQSIVHSNGNTYLEWFQQRPGQSPRRLIYKVSNRFSGVPDRFSGSGSGTDFTLKISRVEAEDVGVYYCFQGSHVPLTFGGGTKVEIK

- MFI [3]: 158 MFI
B7: Hu3F8-H6/Hu3F8-L1 (antibody, human IgG1, V domains shown)
VH: EVQLVQSGAEVKKPGESLRISCKASGFTFTRYWMNWVRQMPGKGLEWIGRIDPSDSETHYNHKFWGHATLSVDKSSSTVYLQWSSLKASDTAMYYCLRSLYGKGDYWGQGTTVTVSS
VL: DVVMTQSPLSLPVTLGQPASISCRSSQSIVHSNGNTYLEWFQQRPGQSPRRLIYKVSNRFSGVPDRFSGSGSGTDFTLKISRVEAEDVGVYYCYQGSHVPLTFGGGTKVEIK

- MFI [3]: 62 MFI
B8: Hu1B5-H1/Hu1B5-L2 (antibody, human IgG1, V domains shown)
VH: QVQLVQSGAEVKKPGASVKVSCKASGFTFTRFWMNWVRQAPGQGLEWMGRIDPYDSETQYNHKFWDRVTMTRDTSTSTVYMELSSLRSEDTAVYYCGRSLYGKGDYWGQGTTVTVSS
VL: DVVMTQSPLSLPVTLGQPASISCRSSQSIVHSNGNTYLEWYQQRPGQSPRRLIYKVSNRFSGVPDRFSGSGSGTDFTLKISRVEAEDVGVYYCFQGSHVPLTFGGGTKVEIK
